Source: US12313635B2, “Biomarker for thoracic aortic aneurysm” (THE REGENTS OF THE UNIVERSITY OF CALIFORNIA, priority 2018, dated 2025)

Legend:
[1] = system: Ang II infused hph-1 mice and Ang II-infused apoE null mice; details: cited from earlier work
H4B = assay: Aortic and plasma tetrahydrobiopterin (H4B) levels by HPLC; format: in vivo; details: Fbn1^+/+ and Fbn1^C1039G/+ mice, oral FA vs chow diet
Protocol: (§1) FA treatment started at 4 weeks of age, and lasted through the entire study period of 8 weeks till harvest.
Aortic H4B and plasma H4B were measured using HPLC as previously described^19-22, 26, 27, 32, 33, 35-37. For the aorta, freshly isolated aortas were lysed in H4B lysis buffer (0.1 M phosphoric acid, 1 mM EDTA, 10 mM dl-dithiothreitol) and then centrifuged at 12,000 g for 3 min at 4° C. in the dark. For plasma, equal volumes of plasma and H4B lysis buffer were mixed and incubated on ice for 20 min in the dark and then centrifuged at 12,000 g for 3 min at 4° C. in the dark. The supernatant for both the aorta and plasma was subjected to oxidation in acidic (0.2 M trichloroacetic acid with 2.5% 12 and 10% KI) and alkalytic solutions (0.1 M NaOH with 0.9% 12 and 1.5% KI). After centrifugation, 10 μl of the supernatant was injected into a HPLC system equipped with a fluorescent detector (SHIMADZU AMERICA INC, Carlsbad, CA, USA). Excitation and emission wavelengths of 350 nm and 450 nm were used to detect H4B and its oxidized species. H4B concentration was calculated as previously described ^38, 39.

[2] = system: NO bioavailability in aortic tissues; assay: Aortic NO bioavailability by electron spin resonance; format: in vivo; details: aortas of Fbn1^C1039G/+ mice, age 8 and 12 weeks, oral FA
Protocol: FA treatment started at 4 weeks of age, and lasted through the entire study period of 8 weeks till harvest. Aortic N O production was also measured using ESR as previous described^19-22, 26-29, 32-34. Briefly, freshly isolated aortas were cut into 2 mm rings, and then incubated in freshly prepared NO specific spin trap Fe^2+(DETC)2 (0.5 mmol/L) in nitrogen bubbled, modified Krebs/HEPES buffer (as described above) at 37° C. for 60 min, in the presence of calcium ionophore A23187 (10 μmol/L). The aortic rings were then snap frozen in liquid nitrogen and loaded into a finger Dewarfor measurement with ESR. The instrument settings were as the following: Center field, 3440; Sweep width, 100 G: microwave frequency, 9.796 GHz; microwave power 13.26 mW; modulation amplitude, 9.82 G; 512 points of resolution; and receiver gain 356.

DHFR [3] = assay: DHFR activity by HPLC in isolated ECs and denuded aortas; format: in vivo; details: Fbn1^C1039G/+ and Fbn1^+/+ mice, oral FA treatment
Protocol: as §1
DHFR activity was measured from isolated EC or denuded aorticring lysates as previously described^19, 22, 26. Briefly, lysates were incubated in a DHFR assay buffer (0.1 mol/L potassium phosphate dibasic, 1 mmol/L DTT, 0.5 mmol/L KCl, 1 mmol/L EDTA, and 20 mmol/L sodium ascorbate at pH 7.4) with NADPH (200 μmol/L) and the substrate dihydrofolate (50 μmol/L) at 37° C. for 20 min in the dark. The product of the reaction, tetrahydrofolate (THF), was measured using a HPLC system (SHIMADZU AMERICA INC, Carlsbad, CA, USA) with a C-18 column (Alltech, Deerfield, MA, USA) using water based mobile phase consisting of 7% acetonitrile and 5 mmol/L of potassium phosphate dibasic at pH 2.3. The signal was detected using a fluorescent detector at 295 nm excitation and 365 nm emission. The THF content was calculated against a standard curve prepared using THF solutions in assay buffer. Data are presented as nmol production of THF per min per mg protein.

eNOS = assay: Aortic superoxide production and eNOS uncoupling activity (L-NAME-sensitive superoxide) by electron spin resonance; format: in vivo, mice
Protocol: as §1
Aortic superoxide was measured by ESR as previously described^19-22, 26-33. Briefly, freshly isolated aortas were homogenized on icein lysis buffer containing 1:100 protease inhibitor cocktail, and centrifuged at 12,000 g for 15 min. Protein content of the supernatant was determined using a protein assay kit (Bio-Rad, #500-0113, #500-0114, #500-0115). […]
(§2) Four weeks old heterozygous Fbn1^C1039G/+ male animals were treated with TGFβ neutralizing antibody (anti-TGFβ, clone 1D11, Bio X Cell) or isotype (IgG, clone MOPC21, Bio X Cell) as previously shown^40. […] Aortic superoxide production and eNOS uncoupling activity were determined after 4 weeks injection as described above.
Firstly, ESR was used to measure the aortic superoxide production with or without L-NAME, an inhibitor for NOS. If eNOS is functional and coupled, its inhibition by L-NAME will increase the measured superoxide due to lack of scavenging effects of NO on superoxide. However, if eNOS is dysfunctional and uncoupled, it produces superoxide and the inhibition with L-NAME will reduce measured superoxide.

DHFR [4] = assay: Western blotting of DHFR and eNOS expression in aortic endothelial cells; format: in vivo, mice; details: aortic ECs of Fbn1^+/+ and Fbn1^C1039G/+ animals after FA treatment
Protocol: as §1
Western blotting was performed following standard protocols, using 12.5% SDS/PAGE gel and nitrocellulose membranes. Primary antibodies and their dilutions used were: DHFR (1:500, Novus Biologicals, H00001719-MO1), β-actin (1:3000, Sigma-Aldrich, A2066), eNOS (1:2000, BD Transduction Laboratories, 610297), TGFβ (1:500, Abcam, ab92486), NOX4 (1:300, Novus Biologicals, NB110-58849SS), and GTPCH 1 (1:500, Abbiotec, 250680).
Endothelial cells (ECs) were isolated from freshly prepared aortas, Western blot was used to detect DHFR expression in aortic ECs and HPLC was performed to assess DHFR activity in the isolated ECs and the denuded aortas of the Fbn1^+/+ and Fbn1^C1039G/+ animals. […] As shown in FIGS. 6D & 6E, DHFR activity was measured via HPLC from both the isolated ECs (FIG. 6D) and the denuded aortas (FIG. 6E).

[5] = system: Fbn1^C1039G/+ Marfan Syndrome (MFS) mice; assay: Ultrasound imaging (echocardiography) of aortic root and abdominal aorta diameters; format: in vivo; details: FA food (15 mg/kg/day from 4 weeks of age) vs chow diet
Source text: All experimental procedures were approved by the Institutional Animal Care and Usage committee at the University of California, Los Angeles (UCLA). Original heterozygous Fbn1^C1039G/+ male animals were purchased from Jackson Labs (Bar Harbor, ME, Strain B6.129-Fbn1^tm1Hcd/J, stock #012885). Heterozygous mice develop proximal aortic aneurysms, mitral valve thickenings, pulmonary alveolar septation defects, mild thoracic kyphosis, and skeletal myopathy, but 90% reportedly live to one year of age. This strain was backcrossed to C57BL/6 for more than nine generations by the donating laboratory^14. All pups were genotyped using PCR (FIG. 2) as per instructions by Jackson Labs.
as §1
Animals were anesthetized with isoflurane (˜[…]), and secured onto a temperature controlled table to maintain temperature at 37° C. Hair from the abdomen and the chest were removed with a hair removal cream (Nair). […] All images were recorded and saved for later offline aortic dimension analysis.
as §2

## Nc1nc2ncc(CNc3ccc(C(=O)N[C@@H](CCC(=O)O)C(=O)O)cc3)nc2c(=O)[nH]1 [FA, folic acid]
[1]; Ang II infused hph-1 mice and Ang II-infused apoE null mice, oral administration
  AAA formation: completely or largely attenuated
[1]; angiotensin II infused hph-1 and apoE null mice (AAA models)
  plasma and tissue H4B levels: restored
H4B
  H4B levels in plasma: substantially restored
  H4B levels in the aortas: substantially restored
[2]
  NO bioavailability: markedly improved
DHFR [3]
  DHFR activity in the denuded aortas: substantially increased
  DHFR activity in the isolated ECs: substantially increased
eNOS; aortas of Fbn1^C1039G/+ mice at 8 and 12 week old, oral FA
  L-NAME-sensitive superoxide production (eNOS uncoupling activity): completely attenuated
eNOS; aortas of Fbn1^C1039G/+ mice, FA diet
  superoxide production: reduce superoxide production
DHFR [4]
  expression of DHFR: increased
[5]
  size (diameter) of abdominal aortas: substantially smaller
  size (diameter) of aortic roots: substantially smaller
